Test results from PubChem BioAssay (NCI).
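96-well plates; 48 h exposure; 5 concentrations. Endpoints by linear interpolation between flanking doses. Not reached: highest tested concentration assigned. TGI: concentration producing complete growth inhibition.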

Tests used:
Experiment in all cases: inhibition of tumour cell growth, NCI panel, 48 h
[1] = tested on: DLD-1 colon
[2] = tested on: DMS 273 small cell lung
[3] = tested on: HOP-18 NSCLC
[4] = tested on: LXFL 529 NSCLC
[5] = tested on: M19-MEL melanoma
[6] = tested on: SNB-78 CNS
[7] = tested on: XF 498 CNS
[8] = tested on: BT-549 breast
[9] = tested on: DU-145 prostate
[10] = tested on: HS 578T breast
[11] = tested on: MDA-MB-231 breast
[12] = tested on: MDA-MB-435
[13] = tested on: NCI/ADR-RES ovarian

Structure (SMILES) | TGI [1] [µM] | TGI [2] [µM] | TGI [3] [µM] | TGI [4] [µM] | TGI [5] [µM] | TGI [6] [µM] | TGI [7] [µM] | TGI [8] [µM] | TGI [9] [µM] | TGI [10] [µM] | TGI [11] [µM] | TGI [12] [µM] | TGI [13] [µM]
CN=C(NC(=S)N(C)C)N(C)C | > 100 | > 100 | > 100 | > 100 | > 100 | > 100 | > 100 | – | – | – | – | – | –
C#CC[N+](C)(CC#C)CC#C | > 100 | > 100 | – | > 100 | > 100 | > 100 | > 100 | – | – | – | – | – | –
Cc1c(CCO)c(=O)n2c([nH]c3ccccc32)c1C#N | > 100 | > 100 | > 100 | > 100 | > 100 | > 100 | > 100 | – | – | – | – | – | –
O=S(=O)(O)c1ccc(N=Nc2nc(C(F)(F)F)c(C(F)(F)F)[nH]2)cc1 | > 100 | > 100 | > 100 | > 100 | > 100 | > 100 | 41.1 | – | – | – | – | – | –
Nc1c(O)cc(N=C2C(=O)C=CC=C2C(=O)O)c(O)c1C(=O)O | > 31.6 | > 100 | > 100 | > 100 | 37.9 | > 100 | > 100 | – | – | – | – | – | –
COC(=O)C1C=CCON2CCc3c(n(C)c4ccccc34)C12 (stereo unspecified) | > 100 | > 100 | – | > 100 | > 100 | > 100 | > 100 | – | – | – | – | – | –
Cc1ccc(C(=O)N(Cc2ccccc2)Cc2ccccc2)cc1N=NN(C)C | > 100 | > 100 | – | 72.4 | – | > 100 | – | 45.6 | > 100 | 75.2 | 78 | 54.8 | > 100
O=C(CCC(=O)Nc1ccc(Cl)c(Cl)c1)CC(=O)c1ccc(F)cc1 | > 100 | > 100 | > 100 | > 100 | > 100 | > 100 | – | – | – | – | – | – | –
CN(C)c1nnnn1-c1c(N)n(C)c(=O)n(C)c1=O | > 100 | > 100 | > 100 | > 100 | > 100 | > 100 | > 100 | – | – | – | – | – | –
Cc1ccc(NC(=O)C2C(=O)N(c3ccc(C)c(C)c3)C(=O)/C2=N\NC(N)=O)cc1C (stereo unspecified) | > 100 | – | > 100 | > 100 | > 100 | > 100 | > 100 | – | – | – | – | – | –
Cn1c(=O)c(NC(=O)C(Cl)(Cl)Cl)nc2ccccc21 | > 100 | > 100 | – | > 100 | > 100 | > 100 | > 100 | – | – | – | – | – | –
CCCCCCCCCCCCCCCCNCCCN(C)CCCN | 36 | 34.8 | – | 33.2 | 41.3 | 34.4 | – | – | – | – | – | – | –
CCCCC(C)C(OC(=O)CC(CC(=O)O)C(=O)O)C(CC(C)CC(O)CCCCC(O)CC(O)C(C)N)OC(=O)CC(CC(=O)O)C(=O)O (stereo unspecified) | > 100 | – | > 100 | > 100 | > 100 | – | > 100 | – | – | – | – | – | –
S=c1nc(COc2ccc(Cl)cc2Cl)[nH][nH]1 | > 100 | > 100 | – | > 100 | > 100 | > 100 | > 100 | – | – | – | – | – | –
CCn1c(SC(C)C(=O)c2c(C)n(C)n(-c3ccccc3)c2=O)nc2ccccc2c1=O (stereo unspecified) | > 100 | > 100 | – | > 100 | > 100 | > 100 | – | – | – | – | – | – | –
CS(=O)(=O)NNS(=O)(=O)c1ccccc1 | > 100 | > 100 | – | > 100 | > 100 | – | > 100 | – | – | – | – | – | –
O=C(NCCO)c1ccc([N+](=O)[O-])cc1 | > 100 | > 100 | – | > 100 | > 100 | > 100 | > 100 | – | – | – | – | – | –
Cc1nc2c(o1)C(=Nc1ccccc1)c1ccccc1C2=O | 32 | 23.2 | 18 | 24.1 | 3.65 | 37.6 | 12.5 | – | – | – | – | – | –
Cc1noc2c1C(=O)CCC2 | > 100 | – | > 100 | > 100 | > 100 | > 100 | > 100 | – | – | – | – | – | –
N#CC1CCCCOCCOCCOCCOCCOCCCCCC1=O (stereo unspecified) | > 100 | > 100 | > 100 | > 100 | > 100 | > 100 | – | – | – | – | – | – | –
